The text below walks through data of US10238743B2 (Merck Sharp & Dohme Corp., priority 2014, dated 2019).

SMILES strings stand for the structures.

One may read the Ki as a measure of affinity in units of concentration, obtained from inhibition or displacement.

Test [1] deals with soluble human BACE1 catalytic domain (Homo sapiens (Human), UniProt P56817). As to the kind of experiment: BACE1 HTRF FRET Assay. It is filed as biochemical. The settings on record: Ki calculated from IC50 using the Cheng-Prusoff equation; QSY7-APPswe-Eu substrate, pH 5.0; read-out: BACE-1 Ki. The text has this: Na^+-Acetate pH 5.0; 1% Brij-35; Glycerol; Dimethyl Sulfoxide (DMSO); Recombinant human soluble BACE1 catalytic domain (>95% pure); APP Swedish mutant peptide substrate (QSY7-APP^swe-Eu): QSY7-EISEVNLDAEFC-Europium-amide.
A homogeneous time-resolved FRET assay can be used to determine IC50 values for inhibitors of the soluble human BACE1 catalytic domain. This assay monitors the increase of 620 nm fluorescence that resulted from BACE1 cleavage of an APPswedish APP^swe mutant peptide FRET substrate (QSY7-EISEVNLDAEFC-Europium-amide). This substrate contains an N-terminal QSY7 moiety that serves as a quencher of the C-terminal Europium fluorophore (620 nm Em). In the absence of enzyme activity, 620 nm fluorescence is low in the assay and increased linearly over 3 hours in the presence of uninhibited BACE1 enzyme. Inhibition of BACE1 cleavage of the QSY7-APP^swe-Eu substrate by inhibitors is manifested as a suppression of 620 nm fluorescence.
Varying concentrations of inhibitors at 3× the final desired concentration in a volume of 10 ul are preincubated with purified human BACE1 catalytic domain (3 nM in 10 μl) for 30 minutes at 30° C. in reaction buffer containing 20 mM Na-Acetate pH 5.0, 10% glycerol, 0.1% Brij-35 and 7.5% DSMO. Reactions are initiated by addition of 10 μl of 600 nM QSY7-APP^swe-Eu substrate (200 nM final) to give a final reaction volume of 30 μl in a 384 well Nunc HTRF plate. The reactions are incubated at 30° C. for 1.5 hours. The 620 nm fluorescence is then read on a Rubystar HTRF plate reader (BMG Labtechnologies) using a 50 millisecond delay followed by a 400 millisecond acquisition time window. Inhibitor IC50 values are derived from non-linear regression analysis of concentration response curves. Ki values are then calculated from IC50 values using the Cheng-Prusoff equation using a previously determined […] of 8 μM for the QSY7-APP^swe-Eu substrate at BACE1.

Test [2] deals with purified human autoBACE-2 (Homo sapiens (Human), UniProt Q9Y5Z0). As to the kind of experiment: BACE-2 Assay (BACE-HTRF assay). Particulars: Ki calculated from IC50 using the Cheng-Prusoff equation; QSY7-EISEVNLDAEFC-Eu-amide substrate, pH 5.0. It is filed as biochemical. Here is the method:
Inhibitor IC50s at purified human autoBACE-2 are determined in a time-resolved endpoint proteolysis assay that measures hydrolysis of the QSY7-[…]-Eu-amide FRET peptide substrate (BACE-HTRF assay). […] DMSO is present at 5% final concentration in the assay. Following laser excitation of sample wells at 320 nm, the fluorescence signal at 620 nm is collected for 400 ms following a 50 μs delay on a RUBYstar HTRF plate reader (BMG Labtechnologies). Raw RFU data is normalized to maximum (1.0 nM BACE/DMSO) and minimum (no enzyme/DMSO) RFU values. […] The Ki values are calculated from the IC50 using the Cheng-Prusoff equation.

Sequence of purified human autoBACE-2 (Q9Y5Z0 63-473 limits assumed): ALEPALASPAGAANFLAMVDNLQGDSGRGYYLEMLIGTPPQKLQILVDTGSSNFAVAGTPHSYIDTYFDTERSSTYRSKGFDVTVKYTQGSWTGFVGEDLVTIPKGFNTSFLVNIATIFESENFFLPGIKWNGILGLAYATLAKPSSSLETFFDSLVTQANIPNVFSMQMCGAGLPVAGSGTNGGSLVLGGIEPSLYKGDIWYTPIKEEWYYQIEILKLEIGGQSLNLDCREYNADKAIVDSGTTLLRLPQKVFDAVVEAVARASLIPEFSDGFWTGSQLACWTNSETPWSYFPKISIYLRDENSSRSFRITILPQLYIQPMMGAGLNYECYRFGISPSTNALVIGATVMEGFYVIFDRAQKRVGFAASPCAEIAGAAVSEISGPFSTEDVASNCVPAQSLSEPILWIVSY
Sequence of soluble human BACE1 catalytic domain (P56817 75-416): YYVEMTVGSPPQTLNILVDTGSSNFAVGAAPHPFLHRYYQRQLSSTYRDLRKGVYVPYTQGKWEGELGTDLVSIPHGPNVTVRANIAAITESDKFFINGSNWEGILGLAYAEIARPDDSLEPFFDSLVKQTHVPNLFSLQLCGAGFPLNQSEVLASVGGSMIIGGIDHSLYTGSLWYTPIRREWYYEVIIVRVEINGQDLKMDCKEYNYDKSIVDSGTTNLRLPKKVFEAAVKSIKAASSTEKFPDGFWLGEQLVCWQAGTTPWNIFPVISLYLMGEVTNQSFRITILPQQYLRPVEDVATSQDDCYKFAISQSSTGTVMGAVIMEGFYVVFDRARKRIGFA

Take `CN1C(=N)N[C@]2(C)c3cc(NC(=O)c4ncc(Cl)cc4Cl)ccc3OCC[C@@H]2S1(=O)=O` [Example 11]: the Ki in test [1] and in test [2] was 2 nM in each case.

In the case of `CN1C(=N)N[C@]2(C)c3cc(NC(=O)c4ncc(F)cc4F)ccc3CCC[C@@H]2S1(=O)=O` [Example 26, 3,5-difluoro-N-((4aS,11bR)-2-imino-3,11b-dimethyl-4,4-dioxido-1,2,3,4a,5,6,7,11b-octahydrobenzo[6,7]cyclohepta[1,2-e][1,2,4]thiadiazin-10-yl)picolinamide], the results for the Ki in test [1] and in test [2] were 18 nM and 10 nM, respectively.

`CN1C(=N)N[C@]2(C)c3cc(NC(=O)c4ccc(C#N)cn4)ccc3OCC[C@@H]2S1(=O)=O` [Example 16, 5-cyano-N-((4aS,11bR)-2-imino-3,11b-dimethyl-4,4-dioxido-2,3,4a,5,6,11b-hexahydro-1H-benzo[2,3]oxepino[4,5-e][1,2,4]thiadiazin-10-yl)picolinamide]: the Ki is 1 nM in test [1] and 14 nM in test [2].

On to `Cc1cc(C#N)cnc1C(=O)Nc1ccc2c(c1)[C@@]1(C)NC(=N)N(C)S(=O)(=O)[C@H]1CCC2` [Example 35, 5-cyano-N-((4aS,11bR)-2-imino-3,11b-dimethyl-4,4-dioxido-1,2,3,4a,5,6,7,11b-octahydrobenzo[6,7]cyclohepta[1,2-e][1,2,4]thiadiazin-10-yl)-3-methylpicolinamide], for which the Ki is 19 nM in test [1] and 10 nM in test [2].

For `CN1C(=N)N[C@]2(C)c3cc(NC(=O)c4ccc(C#N)cn4)ccc3CCC[C@H]2S1(=O)=O` [Example 39], the Ki in test [1] is 60 nM; in test [2], 315 nM.

Turning to `Cc1cc(F)cnc1C(=O)Nc1ccc2c(c1)[C@@]1(C)NC(=N)N(C)S(=O)(=O)[C@@H]1CCO2` [Example 8, 5-fluoro-N-((4aR,11bR)-2-imino-3,11b-dimethyl-4,4-dioxido-2,3,4a,5,6,11b-hexahydro-1H-benzo[2,3]oxepino[4,5-e][1,2,4]thiadiazin-10-yl)-3-methylpicolinamide], the figures for the Ki in test [1] and in test [2] were 133 nM and 86 nM, respectively.

Regarding `CN1C(=N)N[C@]2(C)c3cc(NC(=O)c4ccccn4)ccc3OCC[C@@H]2S1(=O)=O` [Example 10, N-((4aS,11bR)-2-imino-3,11b-dimethyl-4,4-dioxido-2,3,4a,5,6,11b-hexahydro-1H-benzo[2,3]oxepino[4,5-e][1,2,4]thiadiazin-10-yl)picolinamide], the results for the Ki in test [1] and in test [2] were 35 nM and 15 nM, respectively.

Regarding `CN1C(=N)N[C@]2(C)c3cc(NC(=O)c4ccc(OC(F)F)cn4)ccc3CCC[C@@H]2S1(=O)=O` [Example 22, 5-(difluoromethoxy)-N-((4aS,11bR)-2-imino-3,11b-dimethyl-4,4-dioxido-1,2,3,4a,5,6,7,11b-octahydrobenzo[6,7]cyclohepta[1,2-e][1,2,4]thiadiazin-10-yl)picolinamide], the Ki in test [1] was 10 nM; in test [2] it was 90 nM.

With `CN1C(=N)N[C@]2(C)c3cc(NC(=O)c4ccc(Cl)cn4)ccc3OCC[C@H]2S1(=O)=O` [Example 1, 5-chloro-N-((4aR,11bR)-2-imino-3,11b-dimethyl-4,4-dioxido-2,3,4a,5,6,11b-hexahydro-1H-benzo[2,3]oxepino[4,5-e][1,2,4]thiadiazin-10-yl)picolinamide], the figures for the Ki in test [1] and in test [2] were 72 nM and 65 nM, respectively.

Regarding `COc1cnc(C(=O)Nc2ccc3c(c2)[C@@]2(C)NC(=N)N(C)S(=O)(=O)[C@H]2CCC3)cn1` [Example 34], the Ki in test [1] is 17 nM; in test [2], 52 nM.

For `Cc1cc(F)cnc1C(=O)Nc1ccc2c(c1)[C@@]1(C)NC(=N)N(C)S(=O)(=O)[C@H]1CCC2` [Example 31, 5-fluoro-N-((4aS,11bR)-2-imino-3,11b-dimethyl-4,4-dioxido-1,2,3,4a,5,6,7,11b-octahydrobenzo[6,7]cyclohepta[1,2-e][1,2,4]thiadiazin-10-yl)-3-methylpicolinamide], the Ki is 19 nM in test [1] and 10 nM in test [2].

Consider `CN1C(=N)N[C@]2(C)c3cc(NC(=O)c4ncc(C(F)(F)F)cc4Cl)ccc3OCC[C@@H]2S1(=O)=O` [Example 20, 3-chloro-N-((4aS,11bR)-2-imino-3,11b-dimethyl-4,4-dioxido-2,3,4a,5,6,11b-hexahydro-1H-benzo[2,3]oxepino[4,5-e][1,2,4]thiadiazin-10-yl)-5-(trifluoromethyl)picolinamide], for which the Ki is 5 nM in test [1] and 36 nM in test [2].

For the compound `CN1C(=N)N[C@]2(C)c3cc(NC(=O)c4ccc(F)cn4)ccc3OCC[C@@H]2S1(=O)=O` [Example 14, 5-fluoro-N-((4aS,11bR)-2-imino-3,11b-dimethyl-4,4-dioxido-2,3,4a,5,6,11b-hexahydro-1H-benzo[2,3]oxepino[4,5-e][1,2,4]thiadiazin-10-yl)picolinamide], the Ki was 10 nM in test [1] and 6 nM in test [2].

In the case of `COc1cc(Br)cnc1C(=O)Nc1ccc2c(c1)[C@@]1(C)NC(=N)N(C)S(=O)(=O)[C@H]1CCC2` [Example 27, 5-bromo-N-((4aS,11bR)-2-imino-3,11b-dimethyl-4,4-dioxido-1,2,3,4a,5,6,7,11b-octahydrobenzo[6,7]cyclohepta[1,2-e][1,2,4]thiadiazin-10-yl)-3-methoxypicolinamide], the Ki in test [1] is 18 nM; in test [2] it was 10 nM.

In the case of `CN1C(=N)N[C@]2(C)c3cc(NC(=O)c4ccc(Cl)cn4)ccc3CCC[C@@H]2S1(=O)=O` [Example 23, 5-chloro-N-((4aS,11bR)-2-imino-3,11b-dimethyl-4,4-dioxido-1,2,3,4a,5,6,7,11b-octahydrobenzo[6,7]cyclohepta[1,2-e][1,2,4]thiadiazin-10-yl)picolinamide], the Ki in test [1] and in test [2] was 7 nM each time.

Consider `COc1cnc2c(Nc3ccc4c(c3)[C@@]3(C)NC(=N)N(C)S(=O)(=O)[C@H]3CCO4)ccnc2c1` [Example 42, (4aS,11bR)-2-imino-10-((7-methoxy-1,5-naphthyridin-4-yl)amino)-3,11b-dimethyl-2,3,4a,5,6,11b-hexahydro-1H-benzo[2,3]oxepino[4,5-e][1,2,4]-thiadiazine 4,4-dioxide], for which the Ki is 412 nM in test [1] and 1790 nM in test [2].

Consider `CN1C(=N)N[C@]2(C)c3cc(NC(=O)c4ccc(OC(F)(F)F)cn4)ccc3CCC[C@@H]2S1(=O)=O` [Example 29, N-((4aS,11bR)-2-imino-3,11b-dimethyl-4,4-dioxido-1,2,3,4a,5,6,7,11b-octahydrobenzo[6,7]cyclohepta[1,2-e][1,2,4]thiadiazin-10-yl)-5-(trifluoromethoxy)picolinamide], for which the Ki is 14 nM in test [1] and 144 nM in test [2].

On to `CN1C(=N)N[C@]2(C)c3cc(NC(=O)c4ccc(F)cn4)ccc3CCC[C@H]2S1(=O)=O` [Example 37, 5-fluoro-N-((4aR,11bR)-2-imino-3,11b-dimethyl-4,4-dioxido-1,2,3,4a,5,6,7,11b-octahydrobenzo[6,7]cyclohepta[1,2-e][1,2,4]thiadiazin-10-yl)picolinamide], for which the Ki is 159 nM in test [1] and 96 nM in test [2].

With `Cc1cnc(C(=O)Nc2ccc3c(c2)[C@@]2(C)NC(=N)N(C)S(=O)(=O)[C@H]2CCC3)cn1` [Example 24, N-((4aS,11bR)-2-imino-3,11b-dimethyl-4,4-dioxido-1,2,3,4a,5,6,7,11b-octahydrobenzo[6,7]cyclohepta[1,2-e][1,2,4]thiadiazin-10-yl)-5-methylpyrazine-2-carboxamide], the values for the Ki in test [1] and in test [2] were 168 nM and 251 nM, respectively.

On to `CN1C(=N)N[C@]2(C)c3cc(NC(=O)c4ccc(OC(F)F)cn4)ccc3CCC[C@H]2S1(=O)=O` [Example 38, 5-(difluoromethoxy)-N-((4aR,11bR)-2-imino-3,11b-dimethyl-4,4-dioxido-1,2,3,4a,5,6,7,11b-octahydrobenzo[6,7]cyclohepta[1,2-e][1,2,4]thiadiazin-10-yl)picolinamide], for which the Ki in test [1] was 80 nM; in test [2], 857 nM.
